The record followed here is the SangsterLogP compilation.

Take `CCCCCCCCN(C)N=Nc1ccc(C(=O)O)cc1`: the logP (commonly the decadic logarithm of the partition coefficient of the neutral form, usually between octanol and water) turned out to be 2.96.
The result for `CCCCCCCCCCCCCCCCCCN(C)N=Nc1ccc(C(=O)O)cc1` reads 7.6; that for `CCCCCCCN(C)N=Nc1ccc(C(=O)O)cc1`, 2.37.
The value for `CCN(C)N=Nc1ccc(C(=O)O)cc1` was 0.03.
As for `CN(C)/N=N/c1ccc(C(=O)O)cc1`, the logP is -0.29.
The value for `CC(C)N(C)N=Nc1ccc(C(=O)O)cc1` was 0.42; that for `CN(C)/N=N/c1ccc(C(N)=O)cc1` was 1.17; that for `CN(Cc1ccccc1)N=Nc1ccc(C(=O)O)cc1` was 0.94.
Compound `CCCCCCN(C)N=Nc1ccc(C(N)=O)cc1` registered a logP of 3.59.
The value for `CCCCCCCCCCCCN(C)N=Nc1ccc(C(=O)O)cc1` was 4.77; that for `CN(CCO)/N=N/c1ccc(C(N)=O)cc1` was 0.26; that for `CCCCCCCN(C)/N=N/c1ccc(C(N)=O)cc1` was 4.15.
The value for `CN(O)N=Nc1ccc(C(N)=O)cc1` was -0.22; that for `C#CCN(C)N=Nc1ccc(C(=O)O)cc1` was -0.13.
The value for `C=CCN(C)N=Nc1ccc(C(=O)O)cc1` was 0.38; that for `CCCCCCCCCCCCN(C)N=Nc1ccc(C(N)=O)cc1` was 6.58.
